Source: patent publication US20240368169A1 (priority 2021, published 2024)

What was measured:
[1] = target: recombinant poly(ADP-ribose) polymerase 1 (PARP1) (Homo sapiens, UniProt P09874); experiment: biochemical; settings: inhibition of PARP1 enzyme activity, chemiluminescence
[2] = target: recombinant poly(ADP-ribose) polymerase 2 (PARP2) (Homo sapiens, UniProt Q9UGN5); experiment: biochemical; settings: inhibition of PARP2 enzyme activity, chemiluminescence
MDA-MB-436 cells = experiment: Growth inhibition assay against BRCA mutant human breast cancer MDA-MB-436 cell line (CCK-8, 7 days); assay type: cell-based

Chain of recombinant poly(ADP-ribose) polymerase 2 (PARP2) (Q9UGN5 whole entry): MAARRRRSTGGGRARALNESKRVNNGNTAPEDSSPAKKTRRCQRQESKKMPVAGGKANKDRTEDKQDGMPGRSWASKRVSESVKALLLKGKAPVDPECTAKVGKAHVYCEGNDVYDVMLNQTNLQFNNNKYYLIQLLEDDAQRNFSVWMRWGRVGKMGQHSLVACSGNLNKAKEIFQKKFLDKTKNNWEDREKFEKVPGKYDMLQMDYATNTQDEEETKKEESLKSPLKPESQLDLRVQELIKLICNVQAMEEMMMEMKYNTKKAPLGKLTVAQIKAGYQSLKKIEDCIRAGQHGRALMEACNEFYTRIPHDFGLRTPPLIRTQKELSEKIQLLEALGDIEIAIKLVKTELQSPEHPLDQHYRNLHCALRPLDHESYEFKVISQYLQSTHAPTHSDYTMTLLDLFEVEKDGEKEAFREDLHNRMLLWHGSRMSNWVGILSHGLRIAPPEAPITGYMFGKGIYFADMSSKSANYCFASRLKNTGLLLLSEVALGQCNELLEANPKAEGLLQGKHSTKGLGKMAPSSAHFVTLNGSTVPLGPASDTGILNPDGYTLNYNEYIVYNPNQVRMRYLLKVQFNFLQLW
Chain of recombinant poly(ADP-ribose) polymerase 1 (PARP1) (P09874 whole entry): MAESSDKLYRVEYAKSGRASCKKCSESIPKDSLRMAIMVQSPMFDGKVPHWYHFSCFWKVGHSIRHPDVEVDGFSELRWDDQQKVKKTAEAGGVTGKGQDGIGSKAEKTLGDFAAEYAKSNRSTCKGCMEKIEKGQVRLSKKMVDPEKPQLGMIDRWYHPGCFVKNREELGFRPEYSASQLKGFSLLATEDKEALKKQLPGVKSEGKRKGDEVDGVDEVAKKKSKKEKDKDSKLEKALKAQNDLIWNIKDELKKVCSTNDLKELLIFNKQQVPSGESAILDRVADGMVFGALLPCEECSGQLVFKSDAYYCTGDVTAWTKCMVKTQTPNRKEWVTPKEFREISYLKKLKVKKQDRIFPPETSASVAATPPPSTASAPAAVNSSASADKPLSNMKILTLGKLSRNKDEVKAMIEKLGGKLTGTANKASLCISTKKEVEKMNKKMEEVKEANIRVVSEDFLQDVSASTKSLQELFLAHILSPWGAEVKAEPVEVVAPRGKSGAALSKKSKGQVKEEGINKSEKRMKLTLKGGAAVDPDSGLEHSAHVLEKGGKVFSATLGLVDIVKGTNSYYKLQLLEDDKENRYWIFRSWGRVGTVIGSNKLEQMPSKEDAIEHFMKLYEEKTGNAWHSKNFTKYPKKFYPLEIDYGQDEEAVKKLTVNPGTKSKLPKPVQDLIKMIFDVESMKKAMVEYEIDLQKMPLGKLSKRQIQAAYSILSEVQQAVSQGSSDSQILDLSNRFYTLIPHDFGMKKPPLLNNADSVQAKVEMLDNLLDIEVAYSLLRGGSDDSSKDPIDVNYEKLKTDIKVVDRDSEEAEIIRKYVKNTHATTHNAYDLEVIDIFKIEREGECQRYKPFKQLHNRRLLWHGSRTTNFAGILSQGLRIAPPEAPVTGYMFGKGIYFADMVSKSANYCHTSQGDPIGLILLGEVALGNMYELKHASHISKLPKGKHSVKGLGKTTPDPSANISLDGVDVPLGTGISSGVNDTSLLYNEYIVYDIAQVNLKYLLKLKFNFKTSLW

**Q.** Which IC50 [1] does the source give for `CNC(=O)c1ccc(N2CCN(Cc3cc(F)c4c(c3)[nH]c(=O)n3cccc43)CC2)c(C)n1` [Example 131, 8-((4-(2-methyl-6-(methylcarbamoyl)pyridin-3-yl)piperazin-1-yl)methyl)-10-fluoropyrrolo[1,2-c]quinazolin-5(6H)-one] here?
**A.** The IC50 was 0.78 nM.

**Q.** What about the IC50 [2] of the same molecule?
**A.** Its IC50 is 111 nM.

**Q.** Which results are given for `CNC(=O)c1ccc(N2CCN(Cc3ccc4c([nH]c(=O)c5ccnn54)c3F)CC2)c(F)n1` [Example 95, 7-((4-(2-fluoro-6-(methylcarbamoyl)pyridin-3-yl)piperazin-1-yl)methyl)-6-fluoropyrazolo[1,5-a]quinoxalin-4(5H)-one]?
**A.** IC50 [1]: 1.82 nM; IC50 (MDA-MB-436 cells): 6.78 nM; IC50 [2]: 886 nM

**Q.** What does the source list for `CNC(=O)c1ccc(N2CCN(Cc3ccc4c(c3)[nH]c(=O)c3cccn34)CC2)c(C)n1` [Example 24, 7-((4-(2-methyl-6-(methylcarbamoyl)pyridin-3-yl)piperazin-1-yl)methyl)pyrrolo[1,2-a]quinoxalin-4(5H)-one]?
**A.** IC50 [1]: 0.83 nM; IC50 (MDA-MB-436 cells): 0.78 nM; IC50 [2]: 31.5 nM

**Q.** For `CNC(=O)c1ccc(N2CCN(Cc3ccc4c([nH]c(=O)c5cc(Cl)nn54)c3F)CC2)c(F)n1` [Example 112, 7-((4-(2-fluoro-6-(methylcarbamoyl)pyridin-3-yl)piperazin-1-yl)methyl)-6-fluoro-2-chloropyrazolo[1,5-a]quinoxalin-4(5H)-one], which IC50 [1] is on record?
**A.** The IC50 was 0.57 nM.

**Q.** What about the IC50 [2] of the same molecule?
**A.** Its IC50 is 223 nM.

**Q.** Which IC50 [1] does the source give for `CNC(=O)c1ccc(N2CCN(Cc3ccc4c([nH]c(=O)c5ccnn54)c3F)CC2)c(C)n1` [Example 94, 7-((4-(2-methyl-6-(methylcarbamoyl)pyridin-3-yl)piperazin-1-yl)methyl)-6-fluoropyrazolo[1,5-a]quinoxalin-4(5H)-one] here?
**A.** Its IC50 is 2.69 nM.

**Q.** What about the IC50 (MDA-MB-436 cells) of the same molecule?
**A.** The IC50 was 5.05 nM.

**Q.** And the IC50 [2]?
**A.** Its IC50 is > 10000 nM.

**Q.** `CNC(=O)c1ccc(N2CCN(Cc3cc(F)c4c(c3)[nH]c(=O)n3ccnc43)CC2)c(F)n1` [Example 120] was tested. Which IC50 [2] did it give?
**A.** Its IC50 is 1950 nM.

**Q.** Which IC50 [1] does the source give for `CNC(=O)c1ccc(N2CCN(Cc3cc(F)c4c(c3)[nH]c(=O)c3cc(Cl)nn34)CC2)c(C)n1` [Example 87, 7-((4-(2-methyl-6-(methylcarbamoyl)pyridin-3-yl)piperazin-1-yl)methyl)-2-chloro-9-fluoropyrazolo[1,5-a]quinoxalin-4(5H)-one] here?
**A.** The IC50 was 1.22 nM.

**Q.** And the IC50 (MDA-MB-436 cells)?
**A.** The IC50 was 0.94 nM.

**Q.** What about the IC50 [2] of the same molecule?
**A.** The IC50 was 84.1 nM.

**Q.** Which results are given for `CNC(=O)c1ccc(N2CCN(Cc3ccc4c(c3)[nH]c(=O)c3cscc34)CC2)c(C)n1` [Example 83, 7-((4-(2-methyl-6-(methylcarbamoyl)pyridin-3-yl)piperazin-1-yl)methyl)thieno[3,4-c]quinolin-4(5H)-one]?
**A.** IC50 [1]: 1.08 nM; IC50 [2]: 18.3 nM

**Q.** With `CNC(=O)c1ccc(N2CCN(Cc3ccc4c([nH]c(=O)c5ccnn54)c3C)CC2)c(F)n1` [Example 133, 7-((4-(2-fluoro-6-(methylcarbamoyl)pyridin-3-yl)piperazin-1-yl)methyl)-6-methylpyrazolo[1,5-a]quinoxalin-4(5H)-one] as the molecule, how does the IC50 [1] read?
**A.** Its IC50 is 1.5 nM.

**Q.** And the IC50 [2]?
**A.** Its IC50 is 222 nM.

**Q.** Which results are given for `CNC(=O)c1ccc(N2CCN(Cc3ccc4c5c(c(=O)[nH]c4c3)COC5)CC2)c(C)n1` [Example 4, 7-((4-(2-methyl-6-(methylcarbamoyl)pyridin-3-yl)piperazin-1-yl)methyl)-3,5-dihydrofuro[3,4-c]quinolin-4(1H)-one]?
**A.** IC50 [1]: 1.59 nM; IC50 (MDA-MB-436 cells): 4.22 nM; IC50 [2]: 188 nM

**Q.** With `CNC(=O)c1ccc(N2CCN(Cc3cc(F)c4c(c3)[nH]c(=O)c3cccn34)CC2)c(C)n1` [Example 40, 7-((4-(2-methyl-6-(methylcarbamoyl)pyridin-3-yl)piperazin-1-yl)methyl)-9-fluoropyrrolo[1,2-a]quinoxalin-4(5H)-one] as the molecule, how does the IC50 [1] read?
**A.** Its IC50 is 1.54 nM.

**Q.** And the IC50 (MDA-MB-436 cells)?
**A.** Its IC50 is 1.15 nM.

**Q.** And the IC50 [2]?
**A.** Its IC50 is 38.7 nM.

**Q.** With `CNC(=O)c1ccc(N2CCN(Cc3ccc4c(c3)[nH]c(=O)c3cccn34)CC2)c(Cl)n1` [Example 35, 7-((4-(2-chloro-6-(methylcarbamoyl)pyridin-3-yl)piperazin-1-yl)methyl)pyrrolo[1,2-a]quinoxalin-4(5H)-one] as the molecule, how does the IC50 [1] read?
**A.** The IC50 was 0.81 nM.

**Q.** What about the IC50 (MDA-MB-436 cells) of the same molecule?
**A.** Its IC50 is 0.39 nM.

**Q.** And the IC50 [2]?
**A.** Its IC50 is 26.3 nM.

**Q.** For `CNC(=O)c1ccc(N2CCN(Cc3cc(F)c4c(c3)[nH]c(=O)c3sccc34)CC2)c(C)n1` [Example 114, 7-((4-(2-methyl-6-(methylcarbamoyl)pyridin-3-yl)piperazin-1-yl)methyl)-9-fluorothieno[2,3-c]quinolin-4(5H)-one], which IC50 [1] is on record?
**A.** Its IC50 is 0.67 nM.

**Q.** What about the IC50 (MDA-MB-436 cells) of the same molecule?
**A.** The IC50 was 3.72 nM.

**Q.** What about the IC50 [2] of the same molecule?
**A.** Its IC50 is 16.9 nM.

**Q.** For `CNC(=O)c1ccc(N2CCN(Cc3ccc4c(c3)[nH]c(=O)c3occc34)CC2)c(C)n1` [Example 104, 7-((4-(2-methyl-6-(methylcarbamoyl)pyridin-3-yl)piperazin-1-yl)methyl)furo[2,3-c]quinolin-4(5H)-one], which IC50 [1] is on record?
**A.** Its IC50 is 1.42 nM.

**Q.** `CNC(=O)c1ccc(N2CCN(Cc3ccc4c(c3)[nH]c(=O)c3ccsc34)CC2)c(C)n1` [Example 85, 7-((4-(2-methyl-6-(methylcarbamoyl)pyridin-3-yl)piperazin-1-yl)methyl)thieno[3,2-c]quinolin-4(5H)-one] was tested. Which IC50 [1] did it give?
**A.** Its IC50 is 1.52 nM.

**Q.** What about the IC50 [2] of the same molecule?
**A.** The IC50 was 78 nM.

**Q.** What does the source list for `O=C(NC1CC1)c1ccc(N2CCN(Cc3ccc4c([nH]c(=O)c5ccnn54)c3F)CC2)c(F)n1` [Example 111, 7-((4-(2-fluoro-6-(cyclopropylcarbamoyl)pyridin-3-yl)piperazin-1-yl)methyl)-6-fluoropyrazolo[1,5-a]quinoxalin-4(5H)-one]?
**A.** IC50 [1]: 1.27 nM; IC50 [2]: 455 nM

**Q.** What does the source list for `CNC(=O)c1ccc(N2CCN(Cc3ccc4c(c3)[nH]c(=O)c3sccc34)CC2)c(C)n1` [Example 84, 7-((4-(2-methyl-6-(methylcarbamoyl)pyridin-3-yl)piperazin-1-yl)methyl)thieno[2,3-c]quinolin-4(5H)-one]?
**A.** IC50 [1]: 0.77 nM; IC50 [2]: 10.1 nM

**Q.** Which IC50 [2] does the source give for `CNC(=O)c1ccc(N2CCN(Cc3ccc4c(c3)[nH]c(=O)c3cnn(C)c34)CC2)c(C)n1` [Example 105, 7-((4-(2-methyl-6-(methylcarbamoyl)pyridin-3-yl)piperazin-1-yl)methyl)-1-methyl-1,5-dihydro-4H-pyrazolo[4,3-c]quinolin-4-one] here?
**A.** The IC50 was 910 nM.

**Q.** Which IC50 [1] does the source give for `CNC(=O)c1ccc(N2CCN(Cc3cc(F)c4c(c3)[nH]c(=O)c3c(Cl)cnn34)CC2)c(C)n1` [Example 127, 7-((4-(2-methyl-6-(methylcarbamoyl)pyridin-3-yl)piperazin-1-yl)methyl)-3-chloro-9-fluoropyrazolo[1,5-a]quinoxalin-4(5H)-one] here?
**A.** The IC50 was 0.85 nM.

**Q.** What about the IC50 [2] of the same molecule?
**A.** The IC50 was 83 nM.

**Q.** Which results are given for `CNC(=O)c1ccc(N2CCN(Cc3ccc4c5c(c(=O)[nH]c4c3)CCC5)CC2)c(Cl)n1` [Example 16, 7-((4-(2-chloro-6-(methylcarbamoyl)pyridin-3-yl)piperazin-1-yl)methyl)-1,2,3,5-tetrahydro-4H-cyclopenta[c]quinolin-4-one]?
**A.** IC50 [1]: 1.99 nM; IC50 (MDA-MB-436 cells): 1.71 nM

**Q.** With `CCNC(=O)c1ccc(N2CCN(Cc3ccc4c5c(c(=O)[nH]c4c3)COC5)CC2)c(Cl)n1` [Example 6, 7-((4-(2-chloro-6-(ethylcarbamoyl)pyridin-3-yl)piperazin-1-yl)methyl)-3,5-dihydrofuro[3,4-c]quinolin-4(1H)-one] as the molecule, how does the IC50 [1] read?
**A.** The IC50 was 1.86 nM.

**Q.** And the IC50 (MDA-MB-436 cells)?
**A.** The IC50 was 17.7 nM.

**Q.** How did the IC50 [1] turn out when `CNC(=O)c1ccc(N2CCN(Cc3cc(F)c4c(c3)[nH]c(=O)c3occc34)CC2)c(F)n1` [Example 108, 7-((4-(2-fluoro-6-(methylcarbamoyl)pyridin-3-yl)piperazin-1-yl)methyl)-9-fluoro-furo[2,3-c]quinolin-4(5H)-one] was run?
**A.** The IC50 was 0.66 nM.

**Q.** And the IC50 [2]?
**A.** The IC50 was 353 nM.

**Q.** With `CNC(=O)c1ccc(N2CCN(Cc3ccc4c(c3)[nH]c(=O)n3cncc43)CC2)c(C)n1` [Example 30, 8-((4-(2-methyl-6-(methylcarbamoyl)pyridin-3-yl)piperazin-1-yl)methyl)imidazo[1,5-c]quinazolin-5(6H)-one] as the molecule, how does the IC50 [1] read?
**A.** Its IC50 is 1.54 nM.

**Q.** And the IC50 [2]?
**A.** The IC50 was 2590 nM.

**Q.** With `CCNC(=O)c1ccc(N2CCN(Cc3ccc4c5c(c(=O)[nH]c4c3)COC5)CC2)c(C)n1` [Example 7, 7-((4-(2-methyl-6-(ethylcarbamoyl)pyridin-3-yl)piperazin-1-yl)methyl)-3,5-dihydrofuro[3,4-c]quinolin-4(1H)-one] as the molecule, how does the IC50 [1] read?
**A.** Its IC50 is 1.9 nM.

**Q.** What about the IC50 (MDA-MB-436 cells) of the same molecule?
**A.** The IC50 was 4.36 nM.

**Q.** Which results are given for `CNC(=O)c1ccc(N2CCN(Cc3ccc4c(c3)[nH]c(=O)c3c(C)c(C)nn34)CC2)c(F)n1` [Example 125, 7-((4-(2-fluoro-6-(methylcarbamoyl)pyridin-3-yl)piperazin-1-yl)methyl)-2,3-dimethylpyrazolo[1,5-a]quinoxalin-4(5H)-one]?
**A.** IC50 [1]: 1.05 nM; IC50 [2]: 3.7 nM

**Q.** For `CNC(=O)c1ccc(N2CCN(Cc3cc(F)c4c(c3)[nH]c(=O)n3ccnc43)CC2)c(F)n1` [Example 53, 8-((4-(2-fluoro-6-(methylcarbamoyl)pyridin-3-yl)piperazin-1-yl)methyl)-10-fluoroimidazo[1,2-c]quinazolin-5(6H)-one], which IC50 [1] is on record?
**A.** The IC50 was 2.34 nM.

**Q.** What about the IC50 [2] of the same molecule?
**A.** Its IC50 is 1950 nM.

**Q.** What does the source list for `CNC(=O)c1ccc(N2CCN(Cc3ccc4c([nH]c(=O)c5ccnn54)c3C)CC2)c(C)n1` [Example 129, 7-((4-(2-methyl-6-(methylcarbamoyl)pyridin-3-yl)piperazin-1-yl)methyl)-6-methylpyrazolo[1,5-a]quinoxalin-4(5H)-one]?
**A.** IC50 [1]: 1.48 nM; IC50 [2]: 369 nM

**Q.** How did the IC50 [1] turn out when `CNC(=O)c1ccc(N2CCN(Cc3cc(F)c4c(c3)[nH]c(=O)c3cscc34)CC2)c(C)n1` [Example 86, 7-((4-(2-methyl-6-(methylcarbamoyl)pyridin-3-yl)piperazin-1-yl)methyl)-9-fluorothieno[3,4-c]quinolin-4(5H)-one] was run?
**A.** The IC50 was 0.66 nM.

**Q.** And the IC50 [2]?
**A.** Its IC50 is 13.3 nM.

**Q.** How did the IC50 [1] turn out when `CCNC(=O)c1ccc(N2CCN(Cc3ccc4c([nH]c(=O)c5ccnn54)c3F)CC2)c(F)n1` [Example 110, 7-((4-(2-fluoro-6-(ethylcarbamoyl)pyridin-3-yl)piperazin-1-yl)methyl)-6-fluoropyrazolo[1,5-a]quinoxalin-4(5H)-one] was run?
**A.** The IC50 was 1.95 nM.

**Q.** What about the IC50 [2] of the same molecule?
**A.** Its IC50 is 965 nM.

**Q.** Which results are given for `CNC(=O)c1ccc(N2CCN(Cc3ccc4c(c3)[nH]c(=O)c3nccn34)CC2)c(C)n1` [Example 25, 7-((4-(2-methyl-6-(methylcarbamoyl)pyridin-3-yl)piperazin-1-yl)methyl)imidazo[1,2-a]quinoxalin-4(5H)-one]?
**A.** IC50 [1]: 1.93 nM; IC50 (MDA-MB-436 cells): 44.9 nM
